From ChEMBL document CHEMBL1132420, “Vasopeptidase inhibitors: incorporation of geminal and spirocyclic substituted azepinones in mercaptoacyl dipeptides” (J Med Chem, 1999) come the findings set out here.

In assay [1] the target is T1, Angiotensin-converting enzyme (Oryctolagus cuniculus, UniProt P12822).
T1 sequence (P12822 whole entry): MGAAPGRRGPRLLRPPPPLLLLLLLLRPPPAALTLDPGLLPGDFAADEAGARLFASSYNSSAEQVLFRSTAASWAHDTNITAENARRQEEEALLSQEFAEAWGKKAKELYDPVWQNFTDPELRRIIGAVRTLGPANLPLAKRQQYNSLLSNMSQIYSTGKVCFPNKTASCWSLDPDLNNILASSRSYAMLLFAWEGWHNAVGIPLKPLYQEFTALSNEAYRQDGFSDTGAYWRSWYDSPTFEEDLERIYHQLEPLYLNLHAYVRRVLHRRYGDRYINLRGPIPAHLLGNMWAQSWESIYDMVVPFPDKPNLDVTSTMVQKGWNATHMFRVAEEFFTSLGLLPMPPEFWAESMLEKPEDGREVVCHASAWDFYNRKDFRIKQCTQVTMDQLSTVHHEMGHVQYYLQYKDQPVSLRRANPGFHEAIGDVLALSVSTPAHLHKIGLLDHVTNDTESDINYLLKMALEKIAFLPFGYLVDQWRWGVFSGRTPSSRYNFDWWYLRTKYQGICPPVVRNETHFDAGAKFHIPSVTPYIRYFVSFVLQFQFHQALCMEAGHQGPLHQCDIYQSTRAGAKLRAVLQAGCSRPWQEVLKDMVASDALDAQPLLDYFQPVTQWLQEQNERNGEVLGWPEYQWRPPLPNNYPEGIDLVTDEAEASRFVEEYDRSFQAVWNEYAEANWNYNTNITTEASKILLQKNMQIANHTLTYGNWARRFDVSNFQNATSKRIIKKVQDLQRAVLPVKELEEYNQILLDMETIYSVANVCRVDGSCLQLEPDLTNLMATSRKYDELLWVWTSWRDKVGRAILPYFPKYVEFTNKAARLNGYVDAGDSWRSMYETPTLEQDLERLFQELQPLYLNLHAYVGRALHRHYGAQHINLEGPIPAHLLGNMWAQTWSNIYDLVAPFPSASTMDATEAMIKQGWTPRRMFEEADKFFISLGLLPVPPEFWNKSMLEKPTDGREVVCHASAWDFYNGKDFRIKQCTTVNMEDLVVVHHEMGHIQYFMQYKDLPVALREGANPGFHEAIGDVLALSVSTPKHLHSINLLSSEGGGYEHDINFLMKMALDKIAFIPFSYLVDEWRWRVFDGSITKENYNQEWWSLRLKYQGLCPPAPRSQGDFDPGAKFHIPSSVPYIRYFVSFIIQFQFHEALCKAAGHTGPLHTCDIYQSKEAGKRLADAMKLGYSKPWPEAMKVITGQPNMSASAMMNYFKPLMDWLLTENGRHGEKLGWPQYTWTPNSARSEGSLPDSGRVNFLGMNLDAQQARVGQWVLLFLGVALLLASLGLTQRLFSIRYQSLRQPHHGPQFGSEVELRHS
The assay is described as follows: In vitro inhibitory activity against Angiotensin I converting enzyme (ACE) isolated from rabbit lung extract using hippuryl-L-histidyl-L-leucine (HHL) as the substrate.

The target of assay [2] is T2, Neprilysin (Rattus norvegicus, UniProt P07861).
T2 sequence (P07861 whole entry): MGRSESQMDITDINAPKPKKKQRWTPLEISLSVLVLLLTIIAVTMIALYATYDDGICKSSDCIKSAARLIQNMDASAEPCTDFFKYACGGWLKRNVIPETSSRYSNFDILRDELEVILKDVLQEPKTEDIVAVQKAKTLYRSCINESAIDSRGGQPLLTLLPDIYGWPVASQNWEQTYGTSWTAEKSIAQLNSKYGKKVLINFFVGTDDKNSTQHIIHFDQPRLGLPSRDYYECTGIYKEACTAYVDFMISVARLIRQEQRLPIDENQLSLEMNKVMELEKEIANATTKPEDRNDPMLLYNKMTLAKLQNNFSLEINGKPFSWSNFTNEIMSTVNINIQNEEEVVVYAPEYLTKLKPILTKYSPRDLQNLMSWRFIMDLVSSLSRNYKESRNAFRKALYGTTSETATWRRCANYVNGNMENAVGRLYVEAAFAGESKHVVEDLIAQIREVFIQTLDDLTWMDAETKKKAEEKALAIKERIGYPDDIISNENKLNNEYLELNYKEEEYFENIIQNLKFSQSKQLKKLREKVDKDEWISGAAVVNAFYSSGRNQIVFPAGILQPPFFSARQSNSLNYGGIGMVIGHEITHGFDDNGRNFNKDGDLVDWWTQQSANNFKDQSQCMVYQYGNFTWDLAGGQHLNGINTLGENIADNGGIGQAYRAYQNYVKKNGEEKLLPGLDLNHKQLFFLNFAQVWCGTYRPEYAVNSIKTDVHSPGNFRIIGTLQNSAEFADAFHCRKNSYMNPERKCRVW
As to the kind of experiment: In vitro inhibitory activity against purified rat kidney neutral endopeptidase (NEP) using a fluorometric assay with dansyl-Gly-Phe-Arg as the substrate.

The species entered for assay [3] is Rattus norvegicus. The assay is described as follows: Compound is evaluated for the dose required for 50% inhibition of AI pressor response in normotensive rats. It counts as functional.

For orientation: IC50 means the point on the concentration scale where inhibition reaches its midpoint. Regarding `C[C@H]1CCC[C@H](NC(=O)[C@@H](S)Cc2ccccc2)C(=O)N1CC(=O)O`, the IC50 in assay [1] is 8.2 nM.
`O=C(O)CN1C(=O)[C@@H](NC(=O)[C@@H](S)Cc2ccccc2)CCCC12CCC2`: the IC50 in assay [2] is 641 nM; in assay [1], 29 nM.
The matching figures for `O=C(O)CN1C(=O)[C@@H](NC(=O)[C@@H](S)Cc2ccccc2)CCCC12CCCC2`: 426 nM and 6 nM.
The like results for `O=C(O)CN1C(=O)[C@@H](NC(=O)[C@@H](S)Cc2ccccc2)CCCC12CC2` were, in that order, 377 nM and 9.6 nM.
A word on the ED50: it is the dose at which the effect has come halfway, by size or by number of responders. For `CC1(C)CCC[C@H](NC(=O)[C@@H](S)Cc2ccccc2)C(=O)N1CC(=O)O` [GEMOPATRILAT], the IC50 in assay [2] turned out to be 63 nM; in assay [1], 12 nM. In assay [3], this molecule had an ED50 of 0.1 µmol/kg.
